US20130131321A1, “LIGANDS FOR ANTIBODY AND Fc-FUSION PROTEIN PURIFICATION BY AFFINITY CHROMATOGRAPHY” (GRAFFINITY PHARMACEUTICALS GMBH, priority 2010, published 2013)
Like-named read-outs stand apart in the source and are kept apart here. Blank lines part the entries; values can stand above or below the compound they belong to.

Assays:
Bevacizumab [1] = assay: Microtiter plate chromatography of resins, Bevacizumab whole IgG (bound, yield, selectivity); format: binding, humanized
Protocol: (§1) Resins were assessed in packed mode by microtiter plate chromatography. For each column, approximately 30 μl of resin were transferred to a 384-well filter plate and sealed with appropriate top frits.
(§2) Columns were equilibrated with 6.7 column volumes (cv) of phosphate buffered saline (0.15 M NaCl, 20 mM sodium phosphate, pH 7.3; PBS) prior to injection. Either 3.3 cv of whole IgGs dissolved at 0.75 mg ml^−1, Fab or Fc fragments dissolved at 0.25 mg ml^−1 (all three in PBS) or host cell proteins (HCP) were injected onto columns. Antibody fragments of Bevacizumab (Fab and Fc) were prepared by cleavage of whole IgG with papain protease (3) according to the protocol of the manufacturer. […] Volumes transferred were spun through columns at 50 g for 1-2 min. During injection of samples, acceleration was reduced to 10 g and centrifugation time increased to 5-10 min. Effluent fractions were collected in 384-well plates and concentrations of protein analyzed by Bradford assay. Protein masses mi, mft and me (see below) were calculated as the product of fraction volume and measured protein concentration.
(§3) The fraction of ‘bound’ protein was calculated as the difference between the total mass of protein injected mi and the mass of protein detected in the flowthrough mft, divided by the total mass of protein injected.
(§4) The ‘yield’ of protein was calculated as the mass of protein eluted me, divided by the mass of protein injected mi.
(§5) The ‘selectivity’ of resins was calculated as the fraction of bound antibody BAb, divided by the fraction of bound host cell proteins BHCP.
(§6) the fraction of ‘bound’ protein and the ‘yield’ of protein were calculated for each resin based on data for whole IgG-antibodies. In the case of Bevacizumab fragments and host cell proteins, only the fraction of ‘bound’ protein is given. Selectivity of resins was calculated from data for Bevacizumab Whole IgG and host cell proteins. Due to limited experimental precision, selectivity was truncated beyond values of 10.

Bevacizumab [2] = target: T1, Bevacizumab (Homo sapiens, UniProt P01857); assay: as above; format: binding, humanized
T1 construct: fused on or other part: humanised anti-VEGF-A VH domain N-terminal of the gamma-1 constant region (engineered, no UniProt entry)
Protocol: as §1, §2, §3, §4, §5, §6

Tocilizumab = assay: Microtiter plate chromatography of resins, Tocilizumab (bound, yield); format: binding, humanized
Protocol: as §1, §2, §3, §4, §6

[3] = test system: human poly-IgG (h-poly-IgG); assay: Microtiter plate chromatography of resins, human poly-IgG (bound, yield); format: binding
Protocol: as §1, §2, §3, §4, §6

Palivizumab = assay: Microtiter plate chromatography of resins, Palivizumab (bound, yield); format: binding, humanized
Protocol: as §1, §2, §3, §4, §6

host cell proteins (HCP) = assay: Microtiter plate chromatography of resins, host cell proteins (bound); format: binding, CHO
Protocol: Flowthrough from protein A chromatography (referred to as host cell proteins) was derived from the supernatant of antibody-producing CHO cell culture in serum-free medium.
as §1, §2, §3, §6

[4] = bound Bevacizumab whole IgG / bound HCP, truncated beyond values of 10
[5] = fraction of injected whole IgG bound to resin
[6] = mass eluted / mass injected, whole IgG
[7] = fraction of injected protein bound to resin
[8] = fraction of injected host cell proteins bound to resin
[9] = fraction of whole IgG Bevacizumab bound to resin
[10] = mass of whole IgG Bevacizumab eluted / mass injected
[11] = fraction of bound Bevacizumab whole IgG / fraction of bound HCP, truncated beyond values of 10

Compound: COc1ccc(NC(=O)c2cn3ccsc3n2)cc1C(=O)NCCOCCOCC(=O)NCCOCCOCC(=O)NCCCN [Ligand L66, 8-{8-[5-(Imidazo[2,1-b]thiazol-6-ylcarboxamido)-2-methoxyphenylcarboxamido]-3,6-dioxaoctanoylamido}-3,6-dioxaoctanoic acid (3-amino-1-propyl)amide]
- Selectivity (Bevacizumab [1]; [4]): 10.0
- Bevacizumab IgG Bound (%) (Bevacizumab [2]; [5]): 100%
- Bevacizumab IgG Yield (%) (Bevacizumab [2]; [6]): 100%
- Tocilizumab Bound (%) (Tocilizumab; [7]): 54%
- Tocilizumab Yield (%) (Tocilizumab; mass eluted / mass injected): 53%
- h-poly-IgG Bound (%) [3, 7]: 46%
- h-poly-IgG Yield (%) ([3]; mass eluted / mass injected): 46%
- Palivizumab Bound (%) (Palivizumab; [7]): 41%
- Palivizumab Yield (%) (Palivizumab; mass eluted / mass injected): 27%
- HCP Bound (%) (host cell proteins (HCP); [8]): 0%

Compound: COc1ccc(NC(=O)c2cc(-c3csc(C)n3)on2)cc1C(=O)NCCOCCOCC(=O)NCCOCCOCC(=O)NCCCN [Ligand L68, 8-{8-{2-Methoxy-5-[5-(2-methylthiazol-4-yl)isoxazol-3-ylcarboxamido]phenylcarboxamido}-3,6-dioxaoctanoylamido}-3,6-dioxaoctanoic acid (3-amino-1-propyl)amide]
- Selectivity (Bevacizumab [1]; [4]): 10.0
- Bevacizumab IgG Bound (%) (Bevacizumab [2]; [5]): 100%
- Bevacizumab IgG Yield (%) (Bevacizumab [2]; [6]): 100%
- Tocilizumab Bound (%) (Tocilizumab; [7]): 71%
- Tocilizumab Yield (%) (Tocilizumab; mass eluted / mass injected): 71%
- h-poly-IgG Bound (%) [3, 7]: 65%
- h-poly-IgG Yield (%) ([3]; mass eluted / mass injected): 65%
- Palivizumab Bound (%) (Palivizumab; [7]): 65%
- Palivizumab Yield (%) (Palivizumab; mass eluted / mass injected): 65%
- HCP Bound (%) (host cell proteins (HCP); [8]): 4%

Compound: NCCCNC(=O)c1cccc(C(=O)Nc2nc(-c3ccccc3)cs2)c1 [Ligand L73, Isophthalic acid N-(3-aminopropyl)-N′-(4-phenylthiazol-2-yl)amide]
- Selectivity (Bevacizumab [1]): 1.9
- Bevacizumab IgG Bound (%) (Bevacizumab [2]; [5]): 100%
- Bevacizumab IgG Yield (%) (Bevacizumab [2]; [6]): 92%
- Tocilizumab Bound (%) (Tocilizumab; [7]): 97%
- Tocilizumab Yield (%) (Tocilizumab; mass eluted / mass injected): 95%
- h-poly-IgG Bound (%) [3, 7]: 92%
- h-poly-IgG Yield (%) ([3]; mass eluted / mass injected): 87%
- Palivizumab Bound (%) (Palivizumab; [7]): 87%
- Palivizumab Yield (%) (Palivizumab; mass eluted / mass injected): 87%
- HCP Bound (%) (host cell proteins (HCP); [8]): 52%

Compound: COc1ccc(NC(=O)c2nnc(-c3ccco3)o2)cc1C(=O)NCCOCCOCC(=O)NCCOCCOCC(=O)NCCCN [Ligand L67, 8-{8-{5-[5-(2-Furyl)-1,3,4-oxadiazol-2-ylcarboxamido]-2-methoxyphenylcarboxamido}-3,6-dioxaoctanoylamido}-3,6-dioxaoctanoic acid (3-amino-1-propyl)amide]
- Selectivity (Bevacizumab [1]; [4]): 10.0
- Bevacizumab IgG Bound (%) (Bevacizumab [2]; [5]): 100%
- Bevacizumab IgG Yield (%) (Bevacizumab [2]; [6]): 100%
- Tocilizumab Bound (%) (Tocilizumab; [7]): 91%
- Tocilizumab Yield (%) (Tocilizumab; mass eluted / mass injected): 86%
- h-poly-IgG Bound (%) [3, 7]: 89%
- h-poly-IgG Yield (%) ([3]; mass eluted / mass injected): 87%
- Palivizumab Bound (%) (Palivizumab; [7]): 81%
- Palivizumab Yield (%) (Palivizumab; mass eluted / mass injected): 80%
- HCP Bound (%) (host cell proteins (HCP); [8]): 2%

Compound: COc1ccc(NC(=O)c2cc(C)n(C)n2)cc1C(=O)NCCCN [Ligand L33, 5-(1,5-Dimethylpyrazol-3-yl)carboxamido-2-methoxybenzoic acid N-(3-aminopropyl)amide]
- Selectivity (Bevacizumab [1]): 5.8
- Bevacizumab IgG Bound (%) (Bevacizumab [2]; [9]): 99%
- Bevacizumab IgG Yield (%) (Bevacizumab [2]; [10]): 83%
- Tocilizumab Bound (%) (Tocilizumab): 48%
- Tocilizumab Yield (%) (Tocilizumab): 51%
- h-poly-IgG Bound (%) [3]: 51%
- h-poly-IgG Yield (%) [3]: 39%
- Palivizumab Bound (%) (Palivizumab): 33%
- Palivizumab Yield (%) (Palivizumab): 31%
- HCP Bound (%) (host cell proteins (HCP); host cell proteins): 17%

Compound: COc1ccc(NC(=O)c2nn(C)c3ccccc23)cc1C(=O)NCCOCCOCC(=O)NCCOCCOCC(=O)NCCCN [Ligand L61, 8-{8-[2-Methoxy-5-(1-methylindazol-3-ylcarboxamido)phenylcarboxamido]-3,6-dioxaoctanoylamido}-3,6-dioxaoctanoic acid (3-amino-1-propyl)amide]
- Selectivity (Bevacizumab [1]): 5.1
- Bevacizumab IgG Bound (%) (Bevacizumab [2]; [9]): 100%
- Bevacizumab IgG Yield (%) (Bevacizumab [2]; [10]): 92%
- Tocilizumab Bound (%) (Tocilizumab): 84%
- Tocilizumab Yield (%) (Tocilizumab): 84%
- h-poly-IgG Bound (%) [3]: 81%
- h-poly-IgG Yield (%) [3]: 81%
- Palivizumab Bound (%) (Palivizumab): 67%
- Palivizumab Yield (%) (Palivizumab): 66%
- HCP Bound (%) (host cell proteins (HCP); host cell proteins): 20%

Compound: Cn1nc(C(=O)Nc2nc(C(=O)NCCCN)cs2)cc1-c1cccs1 [Ligand L19, 2-[1-Methyl-5-(2-thienyl)pyrazol-3-yl]carboxamidothiazole-4-carboxylic acid N-(3-aminopropyl)amide]
- Selectivity (Bevacizumab [1]): 1.8
- Bevacizumab IgG Bound (%) (Bevacizumab [2]; [9]): 100%
- Bevacizumab IgG Yield (%) (Bevacizumab [2]; [10]): 99%
- Tocilizumab Bound (%) (Tocilizumab): 47%
- Tocilizumab Yield (%) (Tocilizumab): 48%
- h-poly-IgG Bound (%) [3]: 49%
- h-poly-IgG Yield (%) [3]: 48%
- Palivizumab Bound (%) (Palivizumab): 18%
- Palivizumab Yield (%) (Palivizumab): 16%
- HCP Bound (%) (host cell proteins (HCP); host cell proteins): 56%

Compound: COc1ccc(NC(=O)c2cc(C(F)(F)F)n(C)n2)cc1C(=O)NCCCN [Ligand L34, 2-Methoxy-5-[1-methyl-5-(trifluoromethyl)pyrazol-3-yl]carboxamidobenzoic acid N-(3-aminopropyl)amide]
- Selectivity (Bevacizumab [1]): 2.6
- Bevacizumab IgG Bound (%) (Bevacizumab [2]; [9]): 100%
- Bevacizumab IgG Yield (%) (Bevacizumab [2]; [10]): 89%
- Tocilizumab Bound (%) (Tocilizumab): 85%
- Tocilizumab Yield (%) (Tocilizumab): 80%
- h-poly-IgG Bound (%) [3]: 78%
- h-poly-IgG Yield (%) [3]: 61%
- Palivizumab Bound (%) (Palivizumab): 73%
- Palivizumab Yield (%) (Palivizumab): 72%
- HCP Bound (%) (host cell proteins (HCP); host cell proteins): 39%

Compound: COc1ccc(NC(=O)c2cncc(-c3cc4ccccc4s3)c2)cc1C(=O)NCCCN [Ligand L14, 5-[3-(2-Benzothienyl)pyridin-5-yl]carboxamido-2-methoxybenzoic acid N-(3-aminopropyl)amide]
- Selectivity (Bevacizumab [1]): 1.3
- Bevacizumab IgG Bound (%) (Bevacizumab [2]; [9]): 99%
- Bevacizumab IgG Yield (%) (Bevacizumab [2]; [10]): 89%
- Tocilizumab Bound (%) (Tocilizumab): 82%
- Tocilizumab Yield (%) (Tocilizumab): 74%
- h-poly-IgG Bound (%) [3]: 73%
- h-poly-IgG Yield (%) [3]: 62%
- Palivizumab Bound (%) (Palivizumab): 66%
- Palivizumab Yield (%) (Palivizumab): 61%
- HCP Bound (%) (host cell proteins (HCP); host cell proteins): 74%

Compound: COc1ccc(NC(=O)c2nn(C)c3ccccc23)cc1C(=O)NCCOCCOCC(=O)NCCCN [Ligand L60, 8-[2-Methoxy-5-(1-methylindazol-3-ylcarboxamido)phenylcarboxamido]-3,6-dioxaoctanoic acid (3-amino-1-propyl)amide]
- Selectivity (Bevacizumab [1]): 3.3
- Bevacizumab IgG Bound (%) (Bevacizumab [2]; [9]): 100%
- Bevacizumab IgG Yield (%) (Bevacizumab [2]; [10]): 82%
- Tocilizumab Bound (%) (Tocilizumab): 93%
- Tocilizumab Yield (%) (Tocilizumab): 93%
- h-poly-IgG Bound (%) [3]: 95%
- h-poly-IgG Yield (%) [3]: 94%
- HCP Bound (%) (host cell proteins (HCP); host cell proteins): 30%

- Bevacizumab IgG Bound (%) (Bevacizumab [2]; [9]): 100%
- Bevacizumab IgG Yield (%) (Bevacizumab [2]; [10]): 88%
Compound: COc1ccc(NC(=O)c2cn3ccsc3n2)cc1C(=O)NCCCC[C@H](NC(=O)c1cc(NC(=O)c2cn3ccsc3n2)ccc1OC)C(=O)NCCCN [Ligand L49, (S)-2,6-Bis[5-(Imidazo[2,1-b]thiazol-6-ylcarboxamido)-2-methoxyphenylcarboxamido]hexanoic acid (3-amino-1-propyl)amide]
- Selectivity (Bevacizumab [1]; [11]): 6.1
- Tocilizumab Bound (%) (Tocilizumab): 99%
- Tocilizumab Yield (%) (Tocilizumab): 97%
- h-poly-IgG Bound (%) [3]: 88%
- h-poly-IgG Yield (%) [3]: 88%
- HCP Bound (%) (host cell proteins (HCP); host cell proteins): 17%

- Bevacizumab IgG Bound (%) (Bevacizumab [2]; [9]): 100%
- Bevacizumab IgG Yield (%) (Bevacizumab [2]; [10]): 93%
Compound: COc1ccc(NC(=O)c2cn3ccsc3n2)cc1C(=O)NCCCNC(=O)CC[C@H](N)C(=O)NCCCNC(=O)c1cc(NC(=O)c2cn3ccsc3n2)ccc1OC [Ligand L64, (S)-1-Aminopropane-1,3-dicarboxylic acid bis{3-[5-(imidazo[2,1-b]thiazol-6-ylcarboxamido)-2-methoxyphenylcarboxamido]propyl}amide]
- Selectivity (Bevacizumab [1]; [11]): 2.8
- Tocilizumab Bound (%) (Tocilizumab): 99%
- Tocilizumab Yield (%) (Tocilizumab): 99%
- h-poly-IgG Bound (%) [3]: 100%
- h-poly-IgG Yield (%) [3]: 97%
- HCP Bound (%) (host cell proteins (HCP); host cell proteins): 36%

- Bevacizumab IgG Bound (%) (Bevacizumab [2]; [9]): 100%
- Bevacizumab IgG Yield (%) (Bevacizumab [2]; [10]): 92%
Compound: COc1ccc(NC(=O)c2cn3ccsc3n2)cc1C(=O)NCCOCCOCC(=O)NCCCC[C@H](NC(=O)COCCOCCNC(=O)c1cc(NC(=O)c2cn3ccsc3n2)ccc1OC)C(=O)NCCCN [Ligand L50, (S)-2,6-Bis{8-[5-(Imidazo[2,1-b]thiazol-6-ylcarboxamido)-2-methoxyphenylcarboxamido]-3,6-dioxaoctanoylamido}hexanoic acid (3-amino-1-propyl)amide]
- Selectivity (Bevacizumab [1]; [11]): 6.9
- Tocilizumab Bound (%) (Tocilizumab): 100%
- Tocilizumab Yield (%) (Tocilizumab): 100%
- h-poly-IgG Bound (%) [3]: 91%
- h-poly-IgG Yield (%) [3]: 91%
- HCP Bound (%) (host cell proteins (HCP); host cell proteins): 15%
